# Earlier results as cited in patent publication US11399558B2, “Rebaudioside-D containing sweetener compositions” (Heartland Consumer Products, LLC, priority 2015, dated 2022).
# Where two headings read alike, the source gives them in different places.
# Legend:
# [1] = heat, acid, and alkaline conditions
# [2] = on a weight basis
# [3] = for Solubility in ethanol: ethanol / alcohol
# [4] = absorbed into the bloodstream in the small intestine
# [5] = Chang et al. 1983
Compound,Stability [1],Sweetness relative to sucrose (cane sugar) [2],Solubility in DMSO ([3]; DMSO),Solubility in ethanol [3],Solubility in ethanol ([3]; listed as Erythritol),Solubility in water [3],Solubility in water ([3]; listed as Erythritol),Excretion [4],Stability in carbonated beverages [5]
"OC[C@@H](O)[C@@H](O)CO [Eryrithritol, 1,2,3,4-butanetetrol]",stable,about 70%,Insoluble,Slight,slightly soluble,Soluble,water soluble,for the most part is excreted unchanged in the urine,–
C=C1C[C@@]23CC[C@H]4[C@@](C)(CCC[C@@]4(C)C(=O)O[C@@H]4O[C@H](CO)[C@@H](O)[C@H](O)[C@H]4O)[C@@H]2CC[C@]1(O[C@@H]1O[C@H](CO)[C@@H](O)[C@H](O[C@@H]2O[C@H](CO)[C@@H](O)[C@H](O)[C@H]2O)[C@H]1O[C@@H]1O[C@H](CO)[C@@H](O)[C@H](O)[C@H]1O)C3 [Rebaudioside A],–,–,–,–,–,–,–,–,heat and pH stability
C=C1C[C@@]23CC[C@H]4[C@@](C)(CCC[C@@]4(C)C(=O)O[C@@H]4O[C@H](CO)[C@@H](O)[C@H](O)[C@H]4O)[C@@H]2CC[C@]1(O[C@@H]1O[C@H](CO)[C@@H](O)[C@H](O)[C@H]1O[C@@H]1O[C@H](CO)[C@@H](O)[C@H](O)[C@H]1O)C3 [Stevioside],–,–,–,–,–,–,–,–,heat and pH stability
